According to ChEMBL document CHEMBL4602687, “Dual Binding to Orthosteric and Allosteric Sites Enhances the Anticancer Activity of a TRAP1-Targeting Drug” (J Med Chem, 2020):
Blank lines part the entries; values can stand above or below the compound they belong to. Calls of active or inactive are those of the source. The calls are words filed in the database; no cut-off is given here.

Legend:
[1] = biological target: T1, Heat shock protein 75 kDa, mitochondrial (Homo sapiens) (UniProt Q12931); assay: Inhibition of recombinant wild-type human TRAP1 ATPase activity expressed in Escherichia coli BL21 (DE3) preincubated for 0.5 hrs followed by ATP addition and measured after 3 hrs by PiColorLock Gold reagent based colorimetric assay
T1 sequence (whole entry): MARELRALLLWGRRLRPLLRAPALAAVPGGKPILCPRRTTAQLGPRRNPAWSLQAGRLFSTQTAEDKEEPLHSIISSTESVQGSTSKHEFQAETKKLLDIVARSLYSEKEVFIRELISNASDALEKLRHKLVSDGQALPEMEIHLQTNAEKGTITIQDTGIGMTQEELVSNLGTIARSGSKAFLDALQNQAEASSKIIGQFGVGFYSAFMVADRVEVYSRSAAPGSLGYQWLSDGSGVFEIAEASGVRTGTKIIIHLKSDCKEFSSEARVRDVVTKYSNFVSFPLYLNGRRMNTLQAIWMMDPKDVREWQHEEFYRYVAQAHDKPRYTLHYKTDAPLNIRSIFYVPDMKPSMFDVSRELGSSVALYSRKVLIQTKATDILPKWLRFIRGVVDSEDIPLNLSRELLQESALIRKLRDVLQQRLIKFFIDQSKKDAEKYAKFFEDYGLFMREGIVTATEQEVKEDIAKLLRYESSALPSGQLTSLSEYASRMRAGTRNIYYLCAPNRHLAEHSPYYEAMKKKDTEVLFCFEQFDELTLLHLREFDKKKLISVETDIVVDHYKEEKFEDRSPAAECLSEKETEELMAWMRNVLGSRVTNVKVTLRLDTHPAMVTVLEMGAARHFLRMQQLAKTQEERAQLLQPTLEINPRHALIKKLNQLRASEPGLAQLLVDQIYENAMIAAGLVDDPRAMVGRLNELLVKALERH

LN-229 = assay: Cytotoxicity against human LN229 cells assessed as reduction in cell viability up to 3 uM measured after 24 hrs by MTT assay; assay type: functional, cell-based
PC-3 = assay: Cytotoxicity against human PC3 cells assessed as reduction in cell viability up to 3 uM measured after 24 hrs by MTT assay; assay type: functional, cell-based
NCI-H460 [2] = assay: Cytotoxicity against human NCI-H460 cells assessed as reduction in cell viability up to 3 uM measured after 24 hrs by MTT assay; assay type: functional, cell-based
Mus musculus [3] = assay: In vivo inhibition of TRAP1 in nude mouse xenografted with human NCI-H460 cells assessed as increase in AMPK phosphorylation at 5 mg/kg, ip administered daily by Western blot analysis; assay type: functional, organism-based
[4] = biological target: T1, Heat shock protein 75 kDa, mitochondrial (Homo sapiens); assay: (§1) Binding affinity to recombinant wild-type human TRAP1 ATP site expressed in Escherichia coli BL21 (DE3) assessed as induction of conformational change by measuring closed state population of TRAP1 at 10 uM measured after 30 mins in absence of ATP by TEM analysis (reference value: 52.1 +/- 0.6 %)
Mus musculus [5] = assay: In vivo inhibition of TRAP1 in nude mouse xenografted with human NCI-H460 cells assessed as increase in CHOP expression at 5 mg/kg, ip administered daily by Western blot analysis; assay type: functional, organism-based
NCI-H460 [6] = assay: Antitumor activity against human NCI-H460 cells xenografted in nude mouse assessed as induction of tumor cell death by measuring increase in cleaved caspase-9 expression at 5 mg/kg, ip administered daily by Western blot analysis; assay type: functional, organism-based
Mus musculus [7] = assay: In vivo inhibition of TRAP1 in nude mouse xenografted with human NCI-H460 cells assessed as increase in SIRT3 degradation at 5 mg/kg, ip administered daily by Western blot analysis; assay type: functional, organism-based
Homo sapiens [8] = species on record: Homo sapiens; assay: Inhibition of recombinant full-length human TRAP1 W585/W4F mutant expressed in Escherichia coli BL21 (DE3) assessed as intrinsic fluorescence quenching of tryptophan residues at 10 uM measured after 1 hr by fluorescence spectrophotometric method
[9] = biological target: T1, Heat shock protein 75 kDa, mitochondrial (Homo sapiens); assay: Inhibition of TRAP1 in human PC3 cells assessed as loss of mitochondrial membrane potential at 10 uM measured after 2 hrs by TMRM dye based flow cytometry; assay type: cell-based; conditions: PC-3
NCI-H460 [10] = assay: Antitumor activity against human NCI-H460 cells xenografted in nude mouse assessed as reduction in tumor cell proliferation at 5 mg/kg, ip administered daily by Ki67 staining based immunohistochemistry analysis; assay type: functional, organism-based
[11] = biological target: T1, Heat shock protein 75 kDa, mitochondrial (Homo sapiens); assay: Inhibition of TRAP1 in human PC3 cells assessed as increase in reactive oxygen species generation at 10 uM measured after 2 hrs by Mito-SOX probe based flow cytometry; assay type: cell-based; conditions: PC-3
[12] = biological target: T1, Heat shock protein 75 kDa, mitochondrial (Homo sapiens); assay: Inhibition of TRAP1 in human PC3 cells assessed as increase in AMPK phosphorylation at 5 uM measured after 2 to 12 hrs by Western blot analysis; assay type: cell-based; conditions: PC-3
[13] = biological target: T1, Heat shock protein 75 kDa, mitochondrial (Homo sapiens); assay: Inhibition of recombinant wild-type human TRAP1 chaperone activity expressed in Escherichia coli BL21 (DE3) at 5 uM preincubated for 30 mins followed by denatured luciferase and ATP addition by luciferase refolding assay
HeLa = assay: Cytotoxicity against human HeLa cells assessed as reduction in cell viability up to 3 uM measured after 24 hrs by MTT assay; assay type: functional, cell-based
NCI-H460 [14] = assay: Antitumor activity against human NCI-H460 cells xenografted in nude mouse assessed as induction of tumor cell death by measuring increase in cleaved caspase-3 expression at 5 mg/kg, ip administered daily by Western blot analysis; assay type: functional, organism-based
[15] = biological target: T1, Heat shock protein 75 kDa, mitochondrial (Homo sapiens); assay: Inhibition of TRAP1 in human PC3 cells assessed as increase in CHOP expression at 5 uM measured after 2 to 12 hrs by Western blot analysis; assay type: cell-based; conditions: PC-3
NCI-H460 [16] = assay: Antitumor activity against human NCI-H460 cells xenografted in nude mouse assessed as tumor growth inhibition at 5 mg/kg, ip administered daily; assay type: functional, organism-based
[17] = biological target: T1, Heat shock protein 75 kDa, mitochondrial (Homo sapiens); assay: as §1, with “uM preincubated for 30 mins followed by ATP addition and” for “uM”, “mins” for “mins in absence of ATP”
[18] = biological target: T1, Heat shock protein 75 kDa, mitochondrial (Homo sapiens); assay: Inhibition of TRAP1 in human PC3 cells assessed as reduction in SDHB expression at 5 uM measured after 2 to 12 hrs by Western blot analysis; assay type: cell-based; conditions: PC-3
Mus musculus [19] = assay: In vivo inhibition of TRAP1 in nude mouse xenografted with human NCI-H460 cells assessed as increase in SDHB degradation at 5 mg/kg, ip administered daily by Western blot analysis; assay type: functional, organism-based
[20] = biological target: T1, Heat shock protein 75 kDa, mitochondrial (Homo sapiens); assay: Inhibition of TRAP1 in human PC3 cells assessed as reduction in SIRT3 expression at 5 uM measured after 2 to 12 hrs by Western blot analysis; assay type: cell-based; conditions: PC-3
Homo sapiens [21] = species on record: Homo sapiens; assay: Inhibition of recombinant full-length human TRAP1 W383/W4F mutant expressed in Escherichia coli BL21 (DE3) assessed as intrinsic fluorescence quenching of tryptophan residues at 10 uM measured after 1 hr by fluorescence spectrophotometric method

- inhibition [1]: Active
Compound: Nc1ncnc2c1nc(Sc1cc3c(cc1I)OCO3)n2CCCCCCCCCCCC[P+](c1ccccc1)(c1ccccc1)c1ccccc1

Compound: CO[C@H]1/C=C\C=C(/C)C(=O)NC2=CC(=O)C(NCCCCCC[P+](c3ccccc3)(c3ccccc3)c3ccccc3)=C(C[C@@H](C)C[C@H](OC)[C@H](O)[C@@H](C)/C=C(\C)[C@@H]1OC(N)=O)C2=O
- Activity (LN-229): Active
- Activity (PC-3): Active
- Activity (NCI-H460 [2]): Active

- Activity [4]: 28.2%
- inhibition [1]: Active
- inhibition (Homo sapiens [8]): Active
- inhibition [9]: Active
- inhibition [11]: Active
- inhibition [12]: inactive
- inhibition [13]: Active
- inhibition [15]: inactive
- Activity [17]: 41.3%
- inhibition [18]: inactive
- inhibition [20]: inactive
- inhibition (Homo sapiens [21]): Active
Compound: Nc1ncnc2c1nc(Sc1cc3c(cc1I)OCO3)n2CCCCCC[P+](c1ccccc1)(c1ccccc1)c1ccccc1
- inhibition (Mus musculus [3]): inactive
- Activity (LN-229): Active
- inhibition (Mus musculus [5]): inactive
- Activity (NCI-H460 [6]): inactive
- inhibition (Mus musculus [7]): inactive
- Activity (PC-3): Active
- Activity (NCI-H460 [10]): inactive
- Activity (HeLa): Active
- Activity (NCI-H460 [2]): Active
- Activity (NCI-H460 [14]): inactive
- TGI (NCI-H460 [16]): inactive
- inhibition (Mus musculus [19]): inactive

- inhibition [1]: Active
Compound: Nc1ncnc2c1nc(Sc1cc3c(cc1I)OCO3)n2CCCCCCCC[P+](c1ccccc1)(c1ccccc1)c1ccccc1

- Activity [4]: 28.3%
- inhibition [1]: Active
- inhibition [13]: Active
- Activity [17]: 26.5%
Compound: CC(C)NCCCn1c(Sc2cc3c(cc2I)OCO3)nc2c(N)ncnc21
- Activity (LN-229): Active
- Activity (PC-3): Active
- Activity (HeLa): Active
- Activity (NCI-H460 [2]): Active

- inhibition [1]: Active
Compound: Nc1ncnc2c1nc(Sc1cc3c(cc1I)OCO3)n2CCC[P+](c1ccccc1)(c1ccccc1)c1ccccc1

Compound: CC(C)c1cc(-c2n[nH]c(=O)n2-c2ccc3c(ccn3C)c2)c(O)cc1O
- Activity (LN-229): Active
- Activity (PC-3): Active
- Activity (HeLa): Active
- Activity (NCI-H460 [2]): Active
